IC50 data for 1 compound are collected here from paper PMC7615709 (Antiviral research, 2007).

The target of this test is T1, FLAG-p7 (HCV p7, genotype 1b) (Hepatitis C virus isolate HC-J4, UniProt O92972).
T1 sequence (O92972 747-809 limits assumed): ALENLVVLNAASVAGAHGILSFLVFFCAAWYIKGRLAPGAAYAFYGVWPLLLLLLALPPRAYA
Kind of test: carboxyfluorescein release from liposomes, fluorimetry, initial rates. Type of test: biochemical.

The IC50 is the point on the concentration scale where inhibition reaches its midpoint. `NC12CC3CC(CC(C3)C1)C2` [amantadine] yielded an IC50 of around 2 µM.
